Source: ChEMBL document CHEMBL1122560, “Adrenal medulla imaging agents: a structure-distribution relationship study of radiolabeled aralkylguanidines” (J Med Chem, 1984)

Test: Ratio of the concentration levels determined for the adrenal medulla to the liver after 72 hr; [Adrenal Medulla] / [liver]
Format: ADME, tissue-based

Row | Ratio | SMILES
1 | 45 | N=C(N)Nc1cccc(I)c1
2 | 430 | CC(N=C(N)N)c1cccc(I)c1 (racemic)
3 | 190 | CC(N=C(N)N)c1ccc(I)cc1 (racemic)
4 | 300 | CC(N=C(N)N)c1cccc(I)c1 (single isomer, unassigned; (-))
5 | 390 | CC(N=C(N)N)c1cccc(I)c1 (stereo in doubt; 8b(+))
6 | 720 | N=C(N)NCc1cccc(I)c1 [IOBENGUANE]

The next lines start with the compound.

Row | SMILES | Ratio
7 | N=C(N)NCc1ccc(I)c(I)c1 | 115
8 | N=C(N)NCc1ccccc1I | 130
9 | N=C(N)NCc1ccccc1 | 2700
10 | N=C(N)NCc1cc(I)cc(I)c1 | 5.2
11 | N=C(N)NCCc1cccc(I)c1 | 190
12 | N=C(N)NCCc1ccc(I)cc1 | 200
13 | N=C(N)NCc1ccc(I)cc1 | 545
14 | N=C(N)NCCN1CCCCCCC1 [GUANETHIDINE] | 70
15 | N=C(N)N [GUANIDINE] | 1.4
